Assays:
Assay in all cases: cells
[1] = test system: TE-8; type: functional, cell-based, Homo sapiens; details: Homo sapiens, TE-8;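 note: growth inhibition of TE-8 cells, measured with a cell viability readout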
Description: SANGER: Inhibition of human TE-8 cell growth in a cell viability assay.

[2] = test system: KURAMOCHI; type: functional, cell-based, Homo sapiens; details: Homo sapiens, KURAMOCHI;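 note: growth inhibition of KURAMOCHI cells, read out with a cell viability assay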
Description: SANGER: Inhibition of human KURAMOCHI cell growth in a cell viability assay.

[3] = test system: SK-MEL-1; type: functional, cell-based, Homo sapiens; details: Homo sapiens, SK-MEL-1;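 note: growth inhibition of human SK-MEL-1 cells, read out by a cell viability assay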
Description: SANGER: Inhibition of human SK-MEL-1 cell growth in a cell viability assay.

[4] = test system: RCC10RGB; type: functional, cell-based, Homo sapiens; details: Homo sapiens, RCC10RGB;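 note: growth inhibition of human RCC10RGB cells, read out by a cell viability assay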
Description: SANGER: Inhibition of human RCC10RGB cell growth in a cell viability assay.

[5] = test system: COLO-800; type: functional, cell-based, Homo sapiens; details: Homo sapiens, COLO-800;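 note: growth inhibition of COLO-800 cells, read out with a cell viability assay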
Description: SANGER: Inhibition of human COLO-800 cell growth in a cell viability assay.

[6] = test system: NCI-H1838; type: functional, cell-based, Homo sapiens; details: Homo sapiens, NCI-H1838;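 note: growth inhibition of NCI-H1838 cells, determined with a cell viability readout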
Description: SANGER: Inhibition of human NCI-H1838 cell growth in a cell viability assay.

[7] = test system: LC-2-ad; type: functional, cell-based, Homo sapiens; details: Homo sapiens, LC-2-ad;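 note: growth inhibition of human LC-2-ad cells, read out with a cell viability assay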
Description: SANGER: Inhibition of human LC-2-ad cell growth in a cell viability assay.

[8] = test system: DB; type: functional, cell-based, Homo sapiens; details: Homo sapiens, DB
Description: SANGER: Inhibition of human DB cell growth in a cell viability assay.

[9] = test system: NB5; type: functional, cell-based, Homo sapiens; details: Homo sapiens, NB5;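 note: growth inhibition of NB5 cells, read out as cell viability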
Description: SANGER: Inhibition of human NB5 cell growth in a cell viability assay.

[10] = test system: EW-16; type: functional, cell-based, Homo sapiens; details: Homo sapiens, EW-16;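 note: growth inhibition of human EW-16 cells, read out as cell viability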
Description: SANGER: Inhibition of human EW-16 cell growth in a cell viability assay.

[11] = test system: MN-60; type: functional, cell-based, Homo sapiens; details: Homo sapiens, MN-60;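 note: growth inhibition of the MN-60 cell line, determined with a cell viability assay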
Description: SANGER: Inhibition of human MN-60 cell growth in a cell viability assay.

[12] = test system: ALL-PO; type: functional, cell-based, Homo sapiens; details: Homo sapiens, ALL-PO;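 note: growth inhibition of ALL-PO cells, read out by a cell viability assay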
Description: SANGER: Inhibition of human ALL-PO cell growth in a cell viability assay.

[13] = test system: GT3TKB; type: functional, cell-based, Homo sapiens; details: Homo sapiens, GT3TKB;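 note: growth inhibition of the cell line, read out with a cell viability assay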
Description: SANGER: Inhibition of human GT3TKB cell growth in a cell viability assay.

[14] = test system: MOLT-16; type: functional, cell-based, Homo sapiens; details: Homo sapiens, MOLT-16;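 note: growth inhibition of human MOLT-16 cells, read out with a cell viability assay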
Description: SANGER: Inhibition of human MOLT-16 cell growth in a cell viability assay.

[15] = test system: LXF-289 cell line; type: functional, cell-based; details: Homo sapiens
Description: SANGER: Inhibition of human LXF-289 cell growth in a cell viability assay.

[16] = test system: NKM-1; type: functional, cell-based, Homo sapiens; details: Homo sapiens, NKM-1;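 note: growth inhibition of NKM-1 cells, read out with a cell viability assay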
Description: SANGER: Inhibition of human NKM-1 cell growth in a cell viability assay.

[17] = test system: GI-ME-N; type: functional, cell-based, Homo sapiens; details: Homo sapiens, GI-ME-N;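 note: growth inhibition of human GI-ME-N cells, read out with a cell viability assay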
Description: SANGER: Inhibition of human GI-ME-N cell growth in a cell viability assay.

[18] = test system: COLO-829; type: functional, cell-based, Homo sapiens; details: Homo sapiens, COLO-829
Description: SANGER: Inhibition of human COLO-829 cell growth in a cell viability assay.

[19] = test system: CTB-1; type: functional, cell-based, Homo sapiens; details: Homo sapiens, CTB-1
Description: SANGER: Inhibition of human CTB-1 cell growth in a cell viability assay.

[20] = test system: KM-H2; type: functional, cell-based, Homo sapiens; details: Homo sapiens, KM-H2;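 note: growth inhibition of KM-H2 cells, read out by a cell viability assay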
Description: SANGER: Inhibition of human KM-H2 cell growth in a cell viability assay.

[21] = test system: HD-MY-Z; type: functional, cell-based, Homo sapiens; details: Homo sapiens, HD-MY-Z;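 note: growth inhibition of HD-MY-Z cells, read out with a cell viability assay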
Description: SANGER: Inhibition of human HD-MY-Z cell growth in a cell viability assay.

[22] = test system: RPMI-8226; type: functional, cell-based, Homo sapiens; details: Homo sapiens, RPMI-8226
Description: SANGER: Inhibition of human RPMI-8226 cell growth in a cell viability assay.

[23] = test system: NCI-H1581; type: functional, cell-based, Homo sapiens; details: Homo sapiens, NCI-H1581;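 note: cell growth inhibition read out by a viability assay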
Description: SANGER: Inhibition of human NCI-H1581 cell growth in a cell viability assay.

[24] = test system: SCH; type: functional, cell-based, Homo sapiens; details: Homo sapiens, SCH;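 note: growth inhibition of human SCH cells, read out in a cell viability assay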
Description: SANGER: Inhibition of human SCH cell growth in a cell viability assay.

[25] = test system: TGW; type: functional, cell-based, Homo sapiens; details: Homo sapiens, TGW;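 note: growth inhibition of human TGW cells, read out with a cell viability assay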
Description: SANGER: Inhibition of human TGW cell growth in a cell viability assay.

[26] = test system: HAL-01; type: functional, cell-based, Homo sapiens; details: Homo sapiens, HAL-01;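 note: growth inhibition of human HAL-01 cells, read out with a cell viability assay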
Description: SANGER: Inhibition of human HAL-01 cell growth in a cell viability assay.

[27] = test system: LAN-6; type: functional, cell-based, Homo sapiens; details: Homo sapiens, LAN-6;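 note: growth inhibition of LAN-6 cells, determined with a cell viability assay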
Description: SANGER: Inhibition of human LAN-6 cell growth in a cell viability assay.

[28] = test system: NCI-H1395; type: functional, cell-based, Homo sapiens; details: Homo sapiens, NCI-H1395;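 note: cell viability assay read-out quantifying reduced proliferation of human NCI-H1395 cells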
Description: SANGER: Inhibition of human NCI-H1395 cell growth in a cell viability assay.

[29] = test system: KALS-1; type: functional, cell-based, Homo sapiens; details: Homo sapiens, KALS-1; read-out: IC50;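 note: growth inhibition of KALS-1 cells, determined with a cell viability assay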
Description: SANGER: Inhibition of human KALS-1 cell growth in a cell viability assay.

[30] = test system: no-11; type: functional, cell-based, Homo sapiens; details: Homo sapiens;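 note: growth inhibition of human NO-11 cells, read out with a cell viability assay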
Description: SANGER: Inhibition of human no-11 cell growth in a cell viability assay.

[31] = test system: C8166; type: functional, cell-based, Homo sapiens; details: Homo sapiens, C8166;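 note: growth inhibition of human C8166 cells measured by a cell viability assay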
Description: SANGER: Inhibition of human C8166 cell growth in a cell viability assay.

[32] = test system: NCI-H23; type: functional, cell-based, Homo sapiens; details: Homo sapiens, NCI-H23;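 note: cell viability assay measuring growth inhibition of NCI-H23 cells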
Description: SANGER: Inhibition of human NCI-H23 cell growth in a cell viability assay.

[33] = test system: NCI-H1648; type: functional, cell-based, Homo sapiens; details: Homo sapiens, NCI-H1648;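 note: cell viability assay measuring inhibition of NCI-H1648 cell growth, from the Sanger screening data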
Description: SANGER: Inhibition of human NCI-H1648 cell growth in a cell viability assay.

[34] = test system: IST-SL1; type: functional, cell-based, Homo sapiens; details: Homo sapiens, IST-SL1;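 note: growth inhibition of human IST-SL1 cells, read out with a cell viability assay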
Description: SANGER: Inhibition of human IST-SL1 cell growth in a cell viability assay.

[35] = test system: NMC-G1; type: functional, cell-based, Homo sapiens; details: Homo sapiens, NMC-G1;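 note: growth inhibition of the NMC-G1 cell line, measured with a cell viability read-out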
Description: SANGER: Inhibition of human NMC-G1 cell growth in a cell viability assay.

[36] = test system: RS4-11; type: functional, cell-based, Homo sapiens; details: Homo sapiens, RS4-11;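 note: growth inhibition of RS4-11 cells, read out by a cell viability assay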
Description: SANGER: Inhibition of human RS4-11 cell growth in a cell viability assay.

[37] = test system: ONS-76; type: functional, cell-based, Homo sapiens; details: Homo sapiens, ONS-76;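 note: growth inhibition of human ONS-76 cells, read out with a cell viability assay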
Description: SANGER: Inhibition of human ONS-76 cell growth in a cell viability assay.

[38] = test system: LNCaP-Clone-FGC; type: functional, cell-based, Homo sapiens; details: Homo sapiens, LNCaP-Clone-FGC
Description: SANGER: Inhibition of human LNCaP-Clone-FGC cell growth in a cell viability assay.

[39] = test system: GOTO; type: functional, cell-based, Homo sapiens; details: Homo sapiens, GOTO;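 note: growth inhibition of GOTO cells, read out by a cell viability assay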
Description: SANGER: Inhibition of human GOTO cell growth in a cell viability assay.

[40] = test system: HEL; type: functional, cell-based, Homo sapiens; details: Homo sapiens, HEL;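 note: growth inhibition of HEL cells, read out with a cell viability assay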
Description: SANGER: Inhibition of human HEL cell growth in a cell viability assay.

[41] = test system: ATN-1; type: functional, cell-based, Homo sapiens; details: Homo sapiens, ATN-1;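 note: growth inhibition of human ATN-1 cells, read out with a cell viability assay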
Description: SANGER: Inhibition of human ATN-1 cell growth in a cell viability assay.

[42] = test system: OVCAR-4; type: functional, cell-based, Homo sapiens; details: Homo sapiens, OVCAR-4;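 note: growth inhibition of human OVCAR-4 cells, measured with a cell viability assay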
Description: SANGER: Inhibition of human OVCAR-4 cell growth in a cell viability assay.

[43] = test system: KS-1; type: functional, cell-based; details: Homo sapiens;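 note: growth inhibition of KS-1 cells, read out with a cell viability assay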
Description: SANGER: Inhibition of human KS-1 cell growth in a cell viability assay.

[44] = test system: SK-UT-1; type: functional, cell-based, Homo sapiens; details: Homo sapiens, SK-UT-1;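 note: growth inhibition of SK-UT-1 cells, measured by a cell viability assay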
Description: SANGER: Inhibition of human SK-UT-1 cell growth in a cell viability assay.

[45] = test system: NB10; type: functional, cell-based, Homo sapiens; details: Homo sapiens, NB10;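 note: growth inhibition of NB10 cells, read out by a cell viability assay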
Description: SANGER: Inhibition of human NB10 cell growth in a cell viability assay.

[46] = test system: NCI-H1092; type: functional, cell-based, Homo sapiens; details: Homo sapiens, NCI-H1092;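 note: cell growth inhibition measured with a cell viability assay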
Description: SANGER: Inhibition of human NCI-H1092 cell growth in a cell viability assay.

Question: For O=C(NCCCNc1nc(Nc2cccc(NC(=O)N3CCCC3)c2)ncc1I)c1cccs1 [BX-795], which IC50 [1] is on record?
Answer: 3.55 µM

Question: What about the IC50 [2] of the same compound?
Answer: > 5 µM

Question: And the IC50 [3]?
Answer: > 5 µM

Question: And the IC50 [4]?
Answer: > 5 µM

Question: And the IC50 [5]?
Answer: 2.05 µM

Question: What about the IC50 [6] of the same compound?
Answer: > 5 µM

Question: What about the IC50 [7] of the same compound?
Answer: 1.47 µM

Question: And the IC50 [8]?
Answer: 2.13 µM

Question: What about the IC50 [9] of the same compound?
Answer: 2.94 µM

Question: What about the IC50 [10] of the same compound?
Answer: 4.31 µM

Question: And the IC50 [11]?
Answer: 3.59 µM

Question: What about the IC50 [12] of the same compound?
Answer: 1.06 µM

Question: And the IC50 [13]?
Answer: 1.9 µM

Question: What about the IC50 [14] of the same compound?
Answer: 3.17 µM

Question: And the IC50 [15]?
Answer: 0.657 µM

Question: And the IC50 [16]?
Answer: 0.362 µM

Question: What about the IC50 [17] of the same compound?
Answer: 1.87 µM

Question: And the IC50 [18]?
Answer: > 5 µM

Question: What about the IC50 [19] of the same compound?
Answer: 2.4 µM

Question: And the IC50 [20]?
Answer: > 5 µM

Question: And the IC50 [21]?
Answer: 3.87 µM

Question: And the IC50 [22]?
Answer: > 5 µM

Question: And the IC50 [23]?
Answer: > 5 µM

Question: And the IC50 [24]?
Answer: > 5 µM

Question: What about the IC50 [25] of the same compound?
Answer: 4.58 µM

Question: What about the IC50 [26] of the same compound?
Answer: > 5 µM

Question: What about the IC50 [27] of the same compound?
Answer: > 5 µM

Question: What about the IC50 [28] of the same compound?
Answer: > 5 µM

Question: And the IC50 [29]?
Answer: 3.31 µM

Question: What about the IC50 [30] of the same compound?
Answer: > 5 µM

Question: What about the IC50 [31] of the same compound?
Answer: > 5 µM

Question: What about the IC50 [32] of the same compound?
Answer: > 5 µM

Question: And the IC50 [33]?
Answer: > 5 µM

Question: And the IC50 [34]?
Answer: 2.32 µM

Question: And the IC50 [35]?
Answer: > 5 µM

Question: And the IC50 [36]?
Answer: 0.726 µM

Question: And the IC50 [37]?
Answer: 4.08 µM

Question: And the IC50 [38]?
Answer: > 5 µM

Question: What about the IC50 [39] of the same compound?
Answer: > 5 µM

Question: And the IC50 [40]?
Answer: > 5 µM

Question: And the IC50 [41]?
Answer: 1.37 µM

Question: And the IC50 [42]?
Answer: > 5 µM

Question: And the IC50 [43]?
Answer: 1.83 µM

Question: What about the IC50 [44] of the same compound?
Answer: 2.29 µM

Question: What about the IC50 [45] of the same compound?
Answer: 4.23 µM

Question: What about the IC50 [46] of the same compound?
Answer: > 5 µM

Question: For CS(=O)(=O)N1CCN(Cc2cc3nc(-c4cccc5[nH]ncc45)nc(N4CCOCC4)c3s2)CC1 [PICTILISIB], which IC50 [1] is on record?
Answer: 3.48 µM

Question: And the IC50 [2]?
Answer: > 4 µM

Question: What about the IC50 [3] of the same compound?
Answer: 1.31 µM

Question: And the IC50 [4]?
Answer: > 4 µM

Question: What about the IC50 [5] of the same compound?
Answer: > 4 µM

Question: And the IC50 [6]?
Answer: > 4 µM

Question: And the IC50 [7]?
Answer: > 4 µM

Question: What about the IC50 [8] of the same compound?
Answer: > 4 µM

Question: What about the IC50 [9] of the same compound?
Answer: 0.957 µM

Question: What about the IC50 [10] of the same compound?
Answer: 1.85 µM

Question: And the IC50 [11]?
Answer: > 4 µM

Question: And the IC50 [12]?
Answer: > 4 µM

Question: What about the IC50 [13] of the same compound?
Answer: > 4 µM

Question: What about the IC50 [14] of the same compound?
Answer: > 4 µM

Question: And the IC50 [15]?
Answer: 0.448 µM

Question: And the IC50 [16]?
Answer: 0.593 µM

Question: What about the IC50 [17] of the same compound?
Answer: > 4 µM

Question: And the IC50 [18]?
Answer: > 4 µM

Question: And the IC50 [19]?
Answer: 1.14 µM

Question: What about the IC50 [20] of the same compound?
Answer: > 4 µM

Question: What about the IC50 [21] of the same compound?
Answer: > 4 µM

Question: What about the IC50 [22] of the same compound?
Answer: > 4 µM

Question: What about the IC50 [23] of the same compound?
Answer: > 4 µM

Question: What about the IC50 [24] of the same compound?
Answer: > 4 µM

Question: What about the IC50 [25] of the same compound?
Answer: > 4 µM

Question: And the IC50 [26]?
Answer: 0.207 µM

Question: What about the IC50 [27] of the same compound?
Answer: > 4 µM

Question: And the IC50 [28]?
Answer: > 4 µM

Question: And the IC50 [29]?
Answer: > 4 µM

Question: What about the IC50 [30] of the same compound?
Answer: > 4 µM

Question: What about the IC50 [31] of the same compound?
Answer: > 4 µM

Question: What about the IC50 [32] of the same compound?
Answer: > 4 µM

Question: What about the IC50 [33] of the same compound?
Answer: 0.999 µM

Question: And the IC50 [34]?
Answer: > 4 µM

Question: And the IC50 [35]?
Answer: > 4 µM

Question: What about the IC50 [36] of the same compound?
Answer: 0.262 µM

Question: And the IC50 [37]?
Answer: > 4 µM

Question: And the IC50 [39]?
Answer: > 4 µM

Question: And the IC50 [40]?
Answer: > 4 µM

Question: And the IC50 [41]?
Answer: > 4 µM

Question: What about the IC50 [42] of the same compound?
Answer: > 4 µM

Question: And the IC50 [43]?
Answer: 2.11 µM

Question: What about the IC50 [45] of the same compound?
Answer: > 4 µM

Question: What about the IC50 [46] of the same compound?
Answer: > 4 µM

— ChEMBL document CHEMBL1201861, “Genomics of Drug Sensitity in Cancer screening data, Wellcome Trust Sanger Institute”
